From patent US11931431B2, “PSMA-targeted radiopharmaceutical for diagnosing and treating prostate cancer” (FUTURECHEM CO., LTD, priority 2018, dated 2024)

Tested on: PSMA^+ PC-3 PIP tumors
Experiment: MicroPET/CT imaging of mice transplanted with prostate cancer cell lines
Type: in vivo, nude mouse
Method: A tumor model was prepared by subcutaneously injecting PSMA^+ PC-3 PIP cells (a human prostate cancer cell line) to the right side of the nude mouse hind leg. Each of the ^68Ga-labeled compounds [^68Ga]1e, [^68Ga]1g, [^68Ga]1h and [^68Ga]1k was intravenously injected with 5.5 to 6.5 MBq (148-175 μCi/200 μL), and PET/CT images were obtained using small animal INVEON PET/CT (Siemens medical solutions, Knoxville, USA) for 60 minutes. After 150 minutes, 270 minutes, and 390 minutes, PET/CT images were also obtained for 30 minutes. The obtained PET/CT image results were quantitatively analyzed using Inveon™ Research Workplace (IRW).
FIGS. 1, 2, 3, and 4 are graphs showing the quantitative analysis results of MicorPET/CT images for [^68Ga]1e, [^68Ga]1g, [^68Ga]1h, and [^68Ga]1k in % injected dose (ID)/g, and summarized in Tables 3, 4, 5, and 6, respectively.

O=C(O)CCC(NC(=O)NC(CCCCN(CC(=O)O)C(=O)COCCNC(=O)C(CCCCNC(=O)CCCc1ccc(I)cc1)NC(=O)CN1CCN2CCN3CCN(CC1)CC(=O)[O][68Ga]([O]C(=O)C2)[O]C(=O)C3)C(=O)O)C(=O)O (stereo not drawn) [[^68Ga]1k]
intake of mouse organ: Bladder (10 min after injection): 4.12 ± 0.45 % ID/g
intake of mouse organ: Heart (10 min after injection): 21.67 ± 0.44 % ID/g
intake of mouse organ: Kidney (10 min after injection): 11.16 ± 1.35 % ID/g
intake of mouse organ: Liver (10 min after injection): 11.99 ± 4.72 % ID/g
intake of mouse organ: Muscle (10 min after injection): 2.26 ± 0.75 % ID/g
intake of mouse organ: Tumor (PIP) (10 min after injection): 1.85 ± 0.25 % ID/g
intake of mouse organ: Bladder (20 min after injection): 4.68 ± 0.22 % ID/g
intake of mouse organ: Heart (20 min after injection): 20.10 ± 0.29 % ID/g
intake of mouse organ: Kidney (20 min after injection): 11.21 ± 1.62 % ID/g
intake of mouse organ: Liver (20 min after injection): 11.09 ± 3.46 % ID/g
intake of mouse organ: Muscle (20 min after injection): 2.91 ± 1.21 % ID/g
intake of mouse organ: Tumor (PIP) (20 min after injection): 3.22 ± 0.38 % ID/g
intake of mouse organ: Bladder (30 min after injection): 4.68 ± 0.45 % ID/g
intake of mouse organ: Heart (30 min after injection): 18.33 ± 0.13 % ID/g
intake of mouse organ: Kidney (30 min after injection): 10.89 ± 1.36 % ID/g
intake of mouse organ: Liver (30 min after injection): 10.04 ± 2.73 % ID/g
intake of mouse organ: Muscle (30 min after injection): 3.09 ± 0.91 % ID/g
intake of mouse organ: Tumor (PIP) (30 min after injection): 3.94 ± 0.38 % ID/g
intake of mouse organ: Bladder (40 min after injection): 4.75 ± 0.21 % ID/g
intake of mouse organ: Heart (40 min after injection): 17.22 ± 0.35 % ID/g
intake of mouse organ: Kidney (40 min after injection): 11.06 ± 1.02 % ID/g
intake of mouse organ: Liver (40 min after injection): 9.31 ± 2.32 % ID/g
intake of mouse organ: Muscle (40 min after injection): 3.32 ± 1.20 % ID/g
intake of mouse organ: Tumor (PIP) (40 min after injection): 4.40 ± 0.36 % ID/g
intake of mouse organ: Bladder (50 min after injection): 4.83 ± 0.18 % ID/g
intake of mouse organ: Heart (50 min after injection): 16.06 ± 0.38 % ID/g
intake of mouse organ: Kidney (50 min after injection): 10.80 ± 1.20 % ID/g
intake of mouse organ: Liver (50 min after injection): 8.73 ± 2.11 % ID/g
intake of mouse organ: Muscle (50 min after injection): 3.24 ± 1.07 % ID/g
intake of mouse organ: Tumor (PIP) (50 min after injection): 5.03 ± 0.33 % ID/g
intake of mouse organ: Bladder (60 min after injection): 4.81 ± 0.24 % ID/g
intake of mouse organ: Heart (60 min after injection): 15.03 ± 0.27 % ID/g
intake of mouse organ: Kidney (60 min after injection): 10.96 ± 1.18 % ID/g
intake of mouse organ: Liver (60 min after injection): 8.22 ± 1.79 % ID/g
intake of mouse organ: Muscle (60 min after injection): 3.49 ± 1.28 % ID/g
intake of mouse organ: Tumor (PIP) (60 min after injection): 5.45 ± 0.16 % ID/g
intake of mouse organ: Bladder (150 min after injection): 18.10 ± 6.51 % ID/g
intake of mouse organ: Heart (150 min after injection): 7.85 ± 1.63 % ID/g
intake of mouse organ: Kidney (150 min after injection): 11.40 ± 1.13 % ID/g
intake of mouse organ: Liver (150 min after injection): 5.00 ± 1.41 % ID/g
intake of mouse organ: Muscle (150 min after injection): 2.75 ± 1.20 % ID/g
intake of mouse organ: Tumor (PIP) (150 min after injection): 11.00 ± 2.12 % ID/g
intake of mouse organ: Bladder (270 min after injection): 20.10 ± 4.53 % ID/g
intake of mouse organ: Heart (270 min after injection): 5.10 ± 0.85 % ID/g
intake of mouse organ: Kidney (270 min after injection): 9.25 ± 0.78 % ID/g
intake of mouse organ: Liver (270 min after injection): 3.60 ± 0.71 % ID/g
intake of mouse organ: Muscle (270 min after injection): 2.15 ± 0.78 % ID/g
intake of mouse organ: Tumor (PIP) (270 min after injection): 15.70 ± 4.24 % ID/g
intake of mouse organ: Bladder (390 min after injection): 14.25 ± 0.64 % ID/g
intake of mouse organ: Heart (390 min after injection): 3.80 ± 1.41 % ID/g
intake of mouse organ: Kidney (390 min after injection): 7.70 ± 0.71 % ID/g
intake of mouse organ: Liver (390 min after injection): 2.25 ± 0.64 % ID/g
intake of mouse organ: Muscle (390 min after injection): 1.20 ± 0.56 % ID/g
intake of mouse organ: Tumor (PIP) (390 min after injection): 18.25±4.17 % ID/g
excretion, in words (MicroPET/CT): rapidly excreted out of the body
residence time in the blood, in words (MicroPET/CT): residence time in the blood was increased
tumor intake over time, in words (MicroPET/CT): tumor intake continued to increase after 390 minutes
